# Target: CBP recombinant proteins (Homo sapiens (Human), UniProt Q92793)
# Test: Competitive HTRF assay for affinity to CBP recombinant protein
# Type: binding
# Conditions: His-tagged CBP 5 nM, biotin-labeled ligand 50 nM, 1% DMSO
# Procedure: The affinity of the compounds synthesized in the present patert to the CBP recombinant proteins was determined by competitive HTRF method. His-tagged cyclic adenosine monophosphate response element binding protein (CREB-binding protein, CBP) was expressed in Escherichia coli system and further purified. CBP biotinylated ligands were all self-made. The BL21 star (DE3) competert cells transfected with His-tagged CBP protein genes at N-terminal were cultured at 37° C. for 16 h until the OD value was between 0.6 and 0.8, induced by 0.5 mM of IPTG and cultured overnight. The supernatant of cell lysate was purified by a Ni-ion affinity column and a Superdex75 molecular sieve column sequentially. The purity of resulting CBP proteins was 95%. The fluorescent donor reagent MAb Anti 6HIS—Eu cryptate Gold (Cisbio #61HI2KLA), the receptor reagent Streptavidin-XL665 (#610SAXLA) and the detection buffer (#62SDBRDD) required for HTRF were obtained from CISBIO BIOASSAYS (Codolet, France). Tris(2-carboxyethyl)phosphine hydrochloride (TCEP), sodium chloride, adenosine triphosphate (ATP), Tween-20, dimethylsulfoxide (DMSO), bovine serum albumin (BSA) and HEPES buffer were obtained from SIGMA at the highest level commercially available.
# The general procedure of the competitive HTRF assay for the affinity to CBP recombinant proteins is as follows: 0.05% Tween-20 and 1 mM of TCEP were added immediately before the assay, and the assay was performed in a buffer consisting of 0.1 mg/ml BSA, 50 mM of HEPES and 5 mM of NaCl of pH 7.5. 2.5 μL of compound solution in a determination buffer with 4% DMSO and 5 μL of CBP solution in a determination buffer were added to a white low-volume 384-well microtiter plate, incubated at room temperature for 20 min, and then incubated at room temperature for 40 min by adding 2.5 μL of biotin-labeled ligand solution to the determination buffer. The final concentrations of CBP, biotin-labeled ligand and DMSO were 5 nM, 50 nM and 1%, respectively. Then, 5 μL of MAb Anti 6HIS—Eu cryptate Gold and […] of Streptavidin-XL665 in detection buffers from the manufacturer were added to the mixture, and the mixture was incubated for another 60 min. The final concentration of Streptavidin-XL665 was 12.5 nM, and MAb Anti 6HIS—Eu cryptate Gold was diluted according to the final concentration provided by the supplier. The multimode reader Spark from TECAN (Mannedorf, Switzerland) was used to read the plate to detect the homogeneous time-resolved fluorescence intensity of two groups, in which the excitation wavelength was 320 nm and the emission wavelengths were 665 nm and 620 nm. The IC50 value of the inhibitor was obtained by fitting fluorescence intensity ratios at 665 nm/620 nm with respect to the inhibitor concentration in an S-shaped dose-response curve by using Prism 7 (La Jolla, 15 CA).
# Chain of CBP recombinant proteins (Q92793 whole entry): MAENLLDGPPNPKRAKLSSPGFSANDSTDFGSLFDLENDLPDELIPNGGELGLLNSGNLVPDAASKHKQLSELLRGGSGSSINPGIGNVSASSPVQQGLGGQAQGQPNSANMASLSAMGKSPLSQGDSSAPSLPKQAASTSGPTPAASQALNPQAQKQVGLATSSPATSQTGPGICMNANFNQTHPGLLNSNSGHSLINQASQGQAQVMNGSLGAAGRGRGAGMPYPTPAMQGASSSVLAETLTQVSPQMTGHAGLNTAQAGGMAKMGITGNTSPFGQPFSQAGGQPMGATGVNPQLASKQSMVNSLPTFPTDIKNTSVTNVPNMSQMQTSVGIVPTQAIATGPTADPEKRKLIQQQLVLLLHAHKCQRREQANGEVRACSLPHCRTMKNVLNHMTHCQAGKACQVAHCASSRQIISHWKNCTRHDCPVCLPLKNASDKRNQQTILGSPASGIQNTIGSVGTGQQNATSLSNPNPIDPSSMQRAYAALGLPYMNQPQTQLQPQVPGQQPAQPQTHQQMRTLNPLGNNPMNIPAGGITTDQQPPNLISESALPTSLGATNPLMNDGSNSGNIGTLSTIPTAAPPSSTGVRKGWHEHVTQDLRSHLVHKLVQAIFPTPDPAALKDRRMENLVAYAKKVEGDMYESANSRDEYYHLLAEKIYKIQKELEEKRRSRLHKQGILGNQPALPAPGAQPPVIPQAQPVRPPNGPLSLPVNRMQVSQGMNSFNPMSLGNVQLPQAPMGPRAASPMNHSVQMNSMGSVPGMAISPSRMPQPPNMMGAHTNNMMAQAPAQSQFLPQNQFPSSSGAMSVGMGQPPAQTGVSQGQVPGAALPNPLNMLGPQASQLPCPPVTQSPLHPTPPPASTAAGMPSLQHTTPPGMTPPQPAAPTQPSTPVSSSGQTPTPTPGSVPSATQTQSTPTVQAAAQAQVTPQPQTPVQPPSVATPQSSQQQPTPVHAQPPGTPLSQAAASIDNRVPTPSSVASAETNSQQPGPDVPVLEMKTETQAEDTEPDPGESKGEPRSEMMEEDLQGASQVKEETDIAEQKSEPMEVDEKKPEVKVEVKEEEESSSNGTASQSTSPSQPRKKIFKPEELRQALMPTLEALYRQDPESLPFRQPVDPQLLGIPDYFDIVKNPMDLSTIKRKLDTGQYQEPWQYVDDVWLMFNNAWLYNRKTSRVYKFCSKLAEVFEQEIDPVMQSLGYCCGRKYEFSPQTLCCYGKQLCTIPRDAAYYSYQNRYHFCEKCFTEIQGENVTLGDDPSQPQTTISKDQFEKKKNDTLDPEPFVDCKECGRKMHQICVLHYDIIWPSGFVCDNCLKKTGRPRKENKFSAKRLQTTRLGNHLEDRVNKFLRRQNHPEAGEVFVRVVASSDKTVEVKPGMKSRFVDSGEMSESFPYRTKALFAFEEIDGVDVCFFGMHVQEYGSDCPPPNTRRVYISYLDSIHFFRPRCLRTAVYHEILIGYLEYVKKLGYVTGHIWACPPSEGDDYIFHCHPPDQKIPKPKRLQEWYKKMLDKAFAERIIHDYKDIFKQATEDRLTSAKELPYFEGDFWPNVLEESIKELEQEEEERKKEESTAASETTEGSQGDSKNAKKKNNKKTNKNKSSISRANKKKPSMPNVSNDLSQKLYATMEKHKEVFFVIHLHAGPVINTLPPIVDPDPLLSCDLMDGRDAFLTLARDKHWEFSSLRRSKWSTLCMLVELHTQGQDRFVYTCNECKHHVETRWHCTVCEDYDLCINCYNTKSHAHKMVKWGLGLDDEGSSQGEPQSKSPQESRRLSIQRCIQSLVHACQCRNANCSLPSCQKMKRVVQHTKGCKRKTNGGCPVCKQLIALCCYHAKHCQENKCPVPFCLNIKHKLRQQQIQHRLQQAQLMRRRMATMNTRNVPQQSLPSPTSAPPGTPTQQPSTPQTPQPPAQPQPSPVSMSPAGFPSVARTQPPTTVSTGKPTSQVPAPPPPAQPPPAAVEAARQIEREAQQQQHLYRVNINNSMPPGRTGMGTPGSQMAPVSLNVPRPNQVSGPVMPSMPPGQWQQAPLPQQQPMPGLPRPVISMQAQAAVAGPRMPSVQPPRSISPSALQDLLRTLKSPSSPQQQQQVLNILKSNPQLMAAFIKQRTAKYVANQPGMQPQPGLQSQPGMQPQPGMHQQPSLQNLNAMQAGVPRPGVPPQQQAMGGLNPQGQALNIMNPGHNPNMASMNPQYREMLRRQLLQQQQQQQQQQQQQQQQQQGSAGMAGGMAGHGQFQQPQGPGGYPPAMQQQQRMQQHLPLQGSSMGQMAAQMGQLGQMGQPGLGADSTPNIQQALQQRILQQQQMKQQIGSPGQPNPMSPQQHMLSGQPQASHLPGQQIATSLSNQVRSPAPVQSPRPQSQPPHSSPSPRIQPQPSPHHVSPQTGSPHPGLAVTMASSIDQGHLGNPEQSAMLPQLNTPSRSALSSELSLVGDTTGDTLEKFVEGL
row,SMILES,IC50
1,"CNC(=O)c1cc2ccccc2c(N2CCCc3cc(-c4cnn(C)c4)ccc32)n1 [Example 1, 1-[6-(1-methyl-1H-pyrazol-4-yl)-3,4-dihydro-2H-quinolin-1-yl]-isoquinoline-3-carboxylic acid methylamide]",72 nM
2,"CNC(=O)c1cc2ccccc2c(N2CCCc3cc(-c4cnn(C)c4)c(C(F)F)cc32)n1 [Example 2, 1-[7-difluoromethyl-6-(1-methyl-1H-pyrazol-4-yl)-3,4-dihydro-2H-quinolin-1-yl]isoquinoline-3-carboxylic acid methylamide]",19 nM
3,"Cn1cc(-c2cc3c(cc2C(F)F)N(c2nc(C(N)=O)cc4ccccc24)CCC3)cn1 [Example 3, 1-[7-difluoro-methyl-6-(1-methyl-1H-pyrazol-4-yl)-3,4-dihydro-2H-quinolin-1-yl]-isoquinoline-3-carboxylic acid amide]",245 nM
4,"CN(C)C(=O)c1cc2ccccc2c(N2CCCc3cc(-c4cnn(C)c4)c(C(F)F)cc32)n1 [Example 4, 1-[7-difluoro-methyl-6-(1-methyl-1H-pyrazol-4-yl)-3,4-dihydro-2H-quinolin-1-yl]-isoquinoline-3-carboxylic acid dimethylamide]",> 1000 nM
5,"CCNC(=O)c1cc2ccccc2c(N2CCCc3cc(-c4cnn(C)c4)c(C(F)F)cc32)n1 [Example 5, 1-[7-difluoro-methyl-6-(1-methyl-1H-pyrazol-4-yl)-3,4-dihydro-2H-quinolin-1-yl]-isoquinoline-3-carboxylic acid ethylamide]",> 1000 nM
6,"Cn1cc(-c2cc3c(cc2C(F)F)N(c2nc(C(=O)NCCO)cc4ccccc24)CCC3)cn1 [Example 6, 1-[7-difluoro-methyl-6-(1-methyl-1H-pyrazol-4-yl)-3,4-dihydro-2H-quinolin-1-yl]-isoquinoline-3-carboxylic acid(2-hydroxy-ethyl)-amide]",> 1000 nM
7,"CC(O)CNC(=O)c1cc2ccccc2c(N2CCCc3cc(-c4cnn(C)c4)c(C(F)F)cc32)n1 (stereo not drawn) [Example 7, 1-[7-difluoro-methyl-6-(1-methyl-1H-pyrazol-4-yl)-3,4-dihydro-2H-quinolin-1-yl]-isoquinoline-3-carboxylic acid(2-hydroxy-propyl)-amide]",> 1000 nM
8,"Cn1cc(-c2cc3c(cc2C(F)F)N(c2nc(C(=O)N4CC(O)C4)cc4ccccc24)CCC3)cn1 [Example 8, {1-[7-difluoro-methyl-6-(1-methyl-1H-pyrazol-4-yl)-3,4-dihydro-2H-quinolin-1-yl]-isoquinolin-3-yl}-(3-hydroxy-azetidine-1-yl)methanone]",> 1000 nM
9,"Cn1cc(-c2cc3c(cc2C(F)F)N(c2nc(C(=O)NC4CC4)cc4ccccc24)CCC3)cn1 [Example 9, 1-[7-difluoro-methyl-6-(1-methyl-1H-pyrazol-4-yl)-3,4-dihydro-2H-quinolin-1-yl]-isoquinoline-3-carboxylic acid cyclopro-pylamide]",> 1000 nM
10,CNC(=O)c1cccc(N2CCCc3cc(-c4cnn(C)c4)c(C(F)F)cc32)n1 [Example 11],> 1000 nM
11,"CNC(=O)c1nc(N2CCCc3cc(-c4cnn(C)c4)c(C(F)F)cc32)c2ccccc2n1 [Example 12, 4-[7-difluoro-methyl-6-(1-methyl-1H-pyrazol-4-yl)-3,4-dihydro-2H-quinolin-1-yl]-quinazolin-2-carboxylic acid methylamide]",> 1000 nM
12,"CNC(=O)c1cc2cnccc2c(N2CCCc3cc(-c4cnn(C)c4)c(C(F)F)cc32)n1 [Example 13, 2-[7-difluoro-methyl-6-(1-methyl-1H-pyrazol-4-yl)-3,4-dihydro-2H-quinolin-1-yl]-[2,6] naphthyridine-3-carboxylic acid methylamide]",21 nM
13,"CNC(=O)c1cc2ccncc2c(N2CCCc3cc(-c4cnn(C)c4)c(C(F)F)cc32)n1 [Example 14, 1-[7-difluoro-methyl-6-(1-methyl-1H-pyrazol-4-yl)-3,4-dihydro-2H-quinolin-1-yl]-[2,7] naphthyridine-3-carboxylic acid methylamide]",15 nM
14,"CNC(=O)c1cc2cccnc2c(N2CCCc3cc(-c4cnn(C)c4)c(C(F)F)cc32)n1 [Example 15, 8-[7-difluoro-methyl-6-(1-methyl-1H-pyrazol-4-yl)-3,4-dihydro-2H-quinolin-1-yl]-[1,7] naphthyridine-6-carboxylic acid methylamide]",7.5 nM
15,"CNC(=O)c1cc2ccc(C3=CCOCC3)cc2c(N2CCCc3cc(-c4cnn(C)c4)c(C(F)F)cc32)n1 [Example 16, 1-[7-difluoromethyl-6-(1-methyl-1H-pyrazol-4-yl)-3,4-dihydro-2H-quinolin-1-yl]-7-(3,6-dihydro-2H-pyran-4-yl)-isoquinoline-3-carboxylic acid methylamide]",13 nM
16,"CNC(=O)c1cc2ccc(C3CCOCC3)cc2c(N2CCCc3cc(-c4cnn(C)c4)c(C(F)F)cc32)n1 [Example 17, 1-[7-difluoromethyl-6-(1-methyl-1H-pyrazol-4-yl)-3,4-dihydro-2H-quinolin-1-yl]-7-(tetrahydro-4-yl)-isoquinoline-3-carboxylic acid methylamide]",12 nM
17,"CNC(=O)c1cc2ccc(C3=CCOC3)cc2c(N2CCCc3cc(-c4cnn(C)c4)c(C(F)F)cc32)n1 [Example 18, 1-[7-difluoromethyl-6-(1-methyl-1H-pyrazol-4-yl)-3,4-dihydro-2H-quinolin-1-yl]-7-(2,5-dihydro-furan-3-yl)-isoquinoline-3-carboxylic acid methylamide]",19 nM
18,"CNC(=O)c1cc2ccc(C3CCOC3)cc2c(N2CCCc3cc(-c4cnn(C)c4)c(C(F)F)cc32)n1 (stereo not drawn) [Example 19, 1-[7-difluoromethyl-6-(1-methyl-1H-pyrazol-4-yl)-3,4-dihydro-2H-quinolin-1-yl]-7-(tetrahydrofuran-3-yl)-isoquinoline-3-carboxylic acid methylamide]",6.9 nM
19,"CNC(=O)c1cc2cc(C3=CCOCC3)ccc2c(N2CCCc3cc(-c4cnn(C)c4)c(C(F)F)cc32)n1 [Example 20, 1-[7-difluoromethyl-6-(1-methyl-1H-pyrazol-4-yl)-3,4-dihydro-2H-quinolin-1-yl]-6-(3,6-dihydro-2H-pyran-4-yl)-isoquino-line-3-carboxylic acid methylamide]",18 nM
20,"CNC(=O)c1cc2cc(C3CCOCC3)ccc2c(N2CCCc3cc(-c4cnn(C)c4)c(C(F)F)cc32)n1 [Example 21, 1-[7-difluoromethyl-6-(1-methyl-1H-pyrazol-4-yl)-3,4-dihydro-2H-quinolin-1-yl]-6-(tetrahydro-pyran-4-yl)-isoquinoline-3-carboxylic acid methylamide]",38 nM
21,"CNC(=O)c1cc2cc(C3=CCOC3)ccc2c(N2CCCc3cc(-c4cnn(C)c4)c(C(F)F)cc32)n1 [Example 22, 1-[7-difluoromethyl-6-(1-methyl-1H-pyrazol-4-yl)-3,4-dihydro-2H-quinolin-1-yl]-6-(2,5-dihydro-furan-3-yl)-isoquinoline-3-carboxylic acid methylamide]",22 nM
22,"CNC(=O)c1cc2cc(C3CCOC3)ccc2c(N2CCCc3cc(-c4cnn(C)c4)c(C(F)F)cc32)n1 (stereo not drawn) [Example 23, 1-[7-difluoromethyl-6-(1-methyl-1H-pyrazol-4-yl)-3,4-dihydro-2H-quinolin-1-yl]-6-(tetrahydrofuran-3-yl)-isoquinoline-3-carboxylic acid methylamide]",18 nM
23,"CNC(=O)c1cc2ccc(N3CCOC3=O)cc2c(N2CCCc3cc(-c4cnn(C)c4)c(C(F)F)cc32)n1 [Example 24, 1-[7-difluoromethyl-6-(1-methyl-1H-pyrazol-4-yl)-3,4-dihydro-2H-quinolin-1-yl]-7-(2-oxo-oxazolidin-3-yl)-isoquinoline-3-carboxylic acid methylamide]",7.8 nM
24,"CNC(=O)c1cc2cc(N3CCOC3=O)ccc2c(N2CCCc3cc(-c4cnn(C)c4)c(C(F)F)cc32)n1 [Example 25, 1-[7-difluoromethyl-6-(1-methyl-1H-pyrazol-4-yl)-3,4-dihydro-2H-quinolin-1-yl]-6-(2-oxo-oxazolidin-3-yl)-isoquinoline-3-carboxylic acid methylamide]",4.2 nM
